Converted amounts (≈) assume the structure as drawn. Read-outs that look alike come from different tables or passages of the source.
Key:
ATF6 = assay: ERSE ATF6-luciferase reporter assay (thapsigargin-induced ER stress); format: cell-based, human; details: Homo sapiens, U2OS, thapsigargin-induced ER stress, U2-OS ATF6 luc reporter cells; for inhibition at 1 µM: 8 hr
[1] = In vitro microsomal stability, human liver microsomes; format: in vitro ADME; details: for Rem. @ hLM (%): remaining fraction after 30 min, 1 μM compound, 0.5 mg/mL human liver microsomes, 1 mM NADPH
Method: (§1) Compounds were incubated at a final concentration of 1 μM with 0.5 mg/mL human liver microsomes (hLM) (#HMMCPL; Thermo), mouse liver microsomes (mLM) (#MSMCPL; Thermo) or rat liver microsomes (rLM) (#RTMCPL; Thermo) and 1 mM reduced dihydronicotinamide-adenine dinucleotide phosphate (NADPH) (#N1630; Sigma) in 100 mM phosphate buffer (pH 7.4) at 37° C. The reactions were terminated at 0, 5, 15 and 30 min by the addition of cold acetonitrile containing 50 ng/mL propranolol as an internal standard. […] Verapamil hydrochloride (#V4369 Aldrich) was used as a positive control in all studies.

[2] = In vitro microsomal stability, mouse liver microsomes; format: in vitro ADME; details: for half-life at […], 1 µM / half-life at 1 μM: mouse, read-out: T1/2 @ mLM; for Rem. @ mLM (%): remaining fraction after 30 min, 1 μM compound, 0.5 mg/mL mouse liver microsomes, 1 mM NADPH
Method: as §1

[3] = In vitro microsomal stability, rat liver microsomes; format: in vitro ADME; details: for microsomal CLint at 1 μM / half-life at 1 μM / microsomal CLint at […], 1 µM / half-life at […], 1 µM: pH 7.4, rat liver microsomes; for microsomal CLint at 1 μM / microsomal CLint at […], 1 µM: intrinsic clearance, read-out: Clint @ rLM; for half-life at 1 μM / half-life at […], 1 µM: rat, read-out: T1/2 @ rLM; for Rem. @ rLM (%): remaining fraction after 30 min, 1 μM compound, 0.5 mg/mL rat liver microsomes, 1 mM NADPH
Method: as §1

[4] = Kinetic solubility (nephelometry); format: physicochemical; details: aqueous buffer, kinetic from dmso stock; PBS pH 7.4, 1% DMSO, 1 hour at 37° C., light scattering at 625 nm
Method: Concentration (μM) was then calculated by segmental regression. Amiodarone (#A8423 Aldrich) was used as positive control.

[5] = 8 h, read-out: Inh. ATF6-Luc @ 1 μM [%], 1 μM test compound
[6] = read-out: IC50 ATF6-Luc reporter [μM], dose-response 30 μM to 1 nM
[7] = human, human liver microsomes, pH 7.4, read-out: T1/2 @ hLM
[8] = pH 7.4, intrinsic clearance, human liver microsomes, read-out: Clint @ hLM
[9] = pH 7.4, intrinsic clearance, mouse liver microsomes, read-out: Clint @ mLM
[10] = 8 h, 1 μM test compound, read-out: Inh. ATF6-Luc @ 1 μM [%]
[11] = dose-response 30 μM to 1 nM, read-out: IC50 ATF6-Luc reporter

Row | Structure (SMILES) | microsomal CLint at […], 1 µM [1, 8] [µL/min/mg] | Rem. @ hLM (%) [1] [%] | half-life at […], 1 µM ([2]; mouse liver microsomes, pH 7.4) [min] | microsomal CLint at […], 1 µM [2, 9] [µL/min/mg] | Rem. @ mLM (%) [2] [%] | half-life at 1 μM [3] [min] | Rem. @ rLM (%) [3] [%] | solubility kinetic at 1 h [4] [µM] | inhibition at 1 µM (ATF6; [10]) [%] | IC50 (ATF6; [11]) [µM] | half-life at 1 μM [1, 7] [min] | half-life at 1 μM ([2]; mouse liver microsomes, pH 7.4) [min] | microsomal CLint at […], 1 µM [3] [µL/min/mg] | further results
1 | C[C@H](c1ccc(C(F)(F)F)cc1C(F)(F)F)n1cc(NC(=O)c2cnc(-c3ccccn3)s2)cn1 [Compound 104, (R)—N-(1-(1-(2,4-bis(trifluoromethyl)phenyl)ethyl)-1H-pyrazol-4-yl)-2-(pyridin-2-yl)thiazole-5-carboxamide] | 18.9 | 76.44 | 108 | 12.9 | 83.18 | 418 | 92.9 | 2.34 (≈ 1.2 µg/mL) |  |  |  |  |  | inhibition at 1 µM (ATF6; [5]): 25 to 50%; IC50 (ATF6; [6]): 1 to 10 µM; half-life at […], 1 µM [1, 7]: 73.2 min; microsomal CLint at 1 μM [3]: 3.32 µL/min/mg
2 | CCC(c1ccc(C(F)(F)F)cc1C(F)(F)F)n1cc(NC(=O)c2cc(-c3ccccn3)on2)cn1 (stereo not drawn) [Compound 1, N-(1-(1-(2,4-bis(trifluoromethyl)phenyl)propyl)-1H-pyrazol-4-yl)-5-(pyridin-2-yl)isoxazole-3-carboxamide] |  | 71.4 |  |  | 54.8 | 32.4 | 51.8 | 2.7 (≈ 1.38 µg/mL) | 25 to 50 | < 1 | 67.7 | 35.1 |  | microsomal CLint at 1 μM [1, 8]: 20.5 µL/min/mg; microsomal CLint at 1 μM [2, 9]: 39.5 µL/min/mg; microsomal CLint at 1 μM [3]: 42.7 µL/min/mg
3 | O=C(Nc1cnn(Cc2ccc(C(F)(F)F)cc2C(F)(F)F)c1)c1cc(-c2cccs2)on1 [Compound 14, N-(1-(2,4-bis(trifluoromethyl)benzyl)-1H-pyrazol-4-yl)-5-(thiophen-2-yl)isoxazole-3-carboxamide] | 43 | 50.1 |  | 187 | 5.62 |  | 0.85 | 35.2 (≈ 17.1 µg/mL) | 25 to 50 | < 1 | 32.1 | 7.4 | 314 | half-life at […], 1 µM [3]: 4.4 min
4 | Cc1nn([C@@H](C)c2ccc(C(F)(F)F)cc2C(F)(F)F)cc1NC(=O)c1cc(-c2ccccn2)on1 [Compound 100, (S)—N-(1-(1-(2,4-bis(trifluoromethyl)phenyl)ethyl)-3-methyl-1H-pyrazol-4-yl)-5-(pyridin-2-yl)isoxazole-3-carboxamide] | 36.2 | 53.3 | 19.1 | 72.6 | 34.3 | 41.5 | 51.4 | 4.68 (≈ 2.38 µg/mL) |  |  | 38.2 |  | 33.4 | inhibition at 1 µM (ATF6; [5]): > 50%; IC50 (ATF6; [6]): < 1 µM
5 | C[C@H](c1ccc(C(F)(F)F)cc1C(F)(F)F)n1cc(NC(=O)c2cc(-c3ncccn3)on2)cn1 [Compound 101, (R)—N-(1-(1-(2,4-bis(trifluoromethyl)phenyl)ethyl)-1H-pyrazol-4-yl)-5-(pyrimidin-2-yl)isoxazole-3-carboxamide] | 38.5 | 52.49 |  | 37.7 | 51.17 | 49.1 | 60.62 | 2.34 (≈ 1.16 µg/mL) | > 50 | < 1 | 36 | 36.7 | 28.2 | 
6 | CC(c1ccc(C(F)(F)F)cc1C(F)(F)F)n1cc(NC(=O)c2cc(-c3cccs3)on2)cn1 (stereo not drawn) [Compound 9, N-(1-(1-(2,4-bis(trifluoromethyl)phenyl)-ethyl)-1H-pyrazol-4-yl)-5-(thiophen-2-yl)isoxazole-3-carboxamide] |  |  |  |  |  |  |  | 8.9 (≈ 4.45 µg/mL) | < 25 | 1 to 10 |  |  |  | 
7 | Cc1c(NC(=O)c2cc(-c3ccccn3)on2)cnn1[C@H](C)c1ccc(C(F)(F)F)cc1C(F)(F)F [Compound 97, (R)—N-(1-(1-(2,4-bis(trifluoromethyl)phenyl)ethyl)-5-methyl-1H-pyrazol-4-yl)-5-(pyridin-2-yl)isoxazole-3-carboxamide] | 25.9 | 59.3 |  | 52.2 | 44.5 | 58.7 | 64.4 | 2.92 (≈ 1.49 µg/mL) | 25 to 50 | 1 to 10 | 53.6 | 26.6 | 23.6 | 
8 | O=C(Nc1cnn(C2CCc3ccccc32)c1)c1cc(-c2ccco2)on1 (stereo not drawn) [Compound 19, N-(1-(2,3-dihydro-1H-inden-1-yl)-1H-pyrazol-4-yl)-5-(furan-2-yl) isoxazole-3-carboxamide] |  |  |  |  |  |  |  | 9.37 (≈ 3.38 µg/mL) | < 25 | > 10 |  |  |  | 
9 | Cc1ccc(-c2cc(C(=O)Nc3cnn(Cc4ccc(C(F)(F)F)cc4C(F)(F)F)c3)no2)o1 [Compound 22, N-(1-(2,4-bis(trifluoromethyl)benzyl)-1H-pyrazol-4-yl)-5-(5-methylfuran-2-yl)isoxazole-3-carboxamide] | 212 | 3.7 | 6.1 | 228 | 3.3 |  | 4.5 |  | < 25 | 1 to 10 | 6.5 |  | 204 | half-life at […], 1 µM [3]: 6.8 min
10 | CC(c1ccc(C(F)(F)F)cc1C(F)(F)F)n1cc(NC(=O)c2cc(-c3ccco3)on2)cn1 (stereo not drawn) [Compound 12, N-(1-{1-[2,4-bis(trifluoromethyl)phenyl]ethyl}-1H-pyrazol-4-yl)-5-(furan-2-yl) isoxazole-3-carboxamide] | 46 | 46.1 | 4.6 | 302 | 1.02 |  | 0.77 |  | > 50 | < 1 | 29.9 |  | 291 | half-life at […], 1 µM [3]: 4.8 min
11 | CC(c1ccc(C(F)(F)F)cc1C(F)(F)F)n1cc(NC(=O)c2cc(-c3ccccn3)ccn2)cn1 (stereo not drawn) [Compound 81, N-(1-(1-(2,4-bis(trifluoromethyl)phenyl)ethyl)-1H-pyrazol-4-yl)-[2,4′-bipyridine]-2′-carboxamide] |  |  |  |  |  |  |  |  |  | > 10 |  |  |  | inhibition at 1 µM (ATF6; 1 μM test compound, read-out: Inh. ATF6-Luc @ 1 μM [%]): < 25%

— patent publication US20240124434A1, “ATF6 INHIBITORS AND USES THEREOF” (Altos Labs, Inc., priority 2018, published 2024)
